# Tests used:
# [1] = target: T1, Dihydrofolate reductase (Rattus norvegicus, UniProt Q920D2)
# T1 sequence (Q920D2 whole entry): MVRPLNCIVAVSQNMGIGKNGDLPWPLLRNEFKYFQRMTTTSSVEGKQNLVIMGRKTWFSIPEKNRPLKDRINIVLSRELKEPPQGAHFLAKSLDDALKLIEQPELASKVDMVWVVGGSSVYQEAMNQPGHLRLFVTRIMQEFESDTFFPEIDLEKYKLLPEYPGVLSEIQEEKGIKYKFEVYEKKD
# [2] = tested on: Escherichia coli; experiment: Comparative in vitro antibacterial activity of compound with trimethoprim against Escherichia coli CN314; format: functional
# [3] = tested on: Vibrio cholerae; experiment: Comparative in vitro antibacterial activity of compound with trimethoprim against Vibrio cholerae ATCC 14035; format: functional
# [4] = tested on: Klebsiella pneumoniae; experiment: Comparative in vitro antibacterial activity of compound with trimethoprim against Klebsiella pneumoniae CN3632; format: functional
# [5] = tested on: Klebsiella aerogenes; experiment: Comparative in vitro antibacterial activity of compound with trimethoprim against Enterobacter aerogenes 2200/86; format: functional
# [6] = tested on: Streptococcus agalactiae; experiment: Comparative in vitro antibacterial activity of compound with trimethoprim against Streptococcus agalactiae CN1143; format: functional
# [7] = tested on: Staphylococcus aureus; experiment: Comparative in vitro antibacterial activity of compound with trimethoprim against Staphylococcus aureus CN491; format: functional
# [8] = tested on: Enterococcus faecalis; experiment: Comparative in vitro antibacterial activity of compound with trimethoprim against Streptococcus faecalis CN478; format: functional
# [9] = tested on: Shigella flexneri; experiment: Comparative in vitro antibacterial activity of compound with trimethoprim against Shigella flexneri CN6007; format: functional
# [10] = tested on: Proteus vulgaris; experiment: Comparative in vitro antibacterial activity of compound with trimethoprim against Proteus vulgaris CN329; format: functional
# [11] = tested on: Salmonella typhimurium; experiment: Comparative in vitro antibacterial activity of compound with trimethoprim against Salmonella Typhimurium S 8587; format: functional, Salmonella enterica subsp. enterica serovar Typhimurium; settings: Salmonella enterica
# [12] = tested on: Streptococcus pyogenes; experiment: Comparative in vitro antibacterial activity of compound with trimethoprim against Streptococcus pyogenes CN10; format: functional
# [13] = Comparative in vitro antibacterial activity of compound with trimethoprim against Salmonella typhi CN512; format: functional, salmonella typhosa
# [14] = target: T1, Dihydrofolate reductase; experiment: Inhibitory activity against Dihydrofolate reductase in rat liver; format: functional, tissue-based; settings: read-out: I50
# [15] = Dissociation constant of compound at 20 degree C; format: physicochemical
# [16] = target: T2, Dihydrofolate reductase (Escherichia coli, UniProt P0ABQ4)
# T2 sequence (P0ABQ4 whole entry): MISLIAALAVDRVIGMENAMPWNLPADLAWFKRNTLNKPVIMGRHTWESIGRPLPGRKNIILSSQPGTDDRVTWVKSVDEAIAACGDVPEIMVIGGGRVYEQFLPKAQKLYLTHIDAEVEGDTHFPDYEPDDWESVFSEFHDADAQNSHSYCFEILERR
# Description: Apparent binding affinity of compound in Escherichia coli DHFR
smiles,measurement,setting,value
CCOc1cc(Cc2cnc(N)nc2N)cc2c1NC(C)(C)C=C2C,IC50,[1],250 µM
COc1cc(Cc2cnc(N)nc2N)cc2c1NCCC2C (centres undefined),IC50,[1],33 µM
CC1=CC(C)(C)Nc2c(Cl)cc(Cc3cnc(N)nc3N)cc21,MIC,[2],100 µg/mL
same,MIC,[3],100 µg/mL
same,MIC,[4],30 µg/mL
same,MIC,[5],300 µg/mL
same,MIC,[6],100 µg/mL
same,MIC,[7],30 µg/mL
same,MIC,[8],300 µg/mL
same,MIC,[9],100 µg/mL
same,MIC,[10],30 µg/mL
same,MIC,[11],30 µg/mL
same,MIC,[12],10 µg/mL
same,IC50,[1],76 µM
same,MIC,[13],30 µg/mL
CCc1cc(Cc2cnc(N)nc2N)cc2c1NC(C)(C)C=C2C,IC50,[1],174 µM
COc1cc(Cc2cnc(N)nc2N)cc2c1N(CCOC(C)=O)C(C)(C)C=C2C,IC50,[1],164 µM
COc1cc(Cc2cnc(N)nc2N)cc2c1N(C)CCC2C (centres undefined),IC50,[14],250 µM
same,pKa,[15],6.51
CCN1CCC(C)c2ccccc21 (centres undefined),pKa,[15],4.18
CC1=CC(C)(C)Nc2c1cc(Cc1cnc(N)nc1N)c1cccnc21,MIC,[2],30 µg/mL
same,MIC,[3],1 µg/mL
same,MIC,[4],> 300 µg/mL
same,MIC,[5],10 µg/mL
same,MIC,[6],0.3 µg/mL
same,MIC,[7],0.1 µg/mL
same,MIC,[8],0.3 µg/mL
same,MIC,[9],100 µg/mL
same,MIC,[10],> 100 µg/mL
same,MIC,[11],100 µg/mL
same,MIC,[12],0.03 µg/mL
same,MIC,[13],30 µg/mL
CC1=CC(C)(C)Nc2c(C)cc(Cc3cnc(N)nc3N)cc21,IC50,[1],500 µM
CC1CC(C)(C)Nc2ccc(Cc3cnc(N)nc3N)cc21 (centres undefined),IC50,[1],300 µM
CC1=CC(C)(C)Nc2ccccc21,pKa,[15],3.69
CSc1cc(Cc2cnc(N)nc2N)cc2c1NC(C)(C)C=C2C,MIC,[2],10 µg/mL
same,MIC,[3],1 µg/mL
same,MIC,[4],100 µg/mL
same,MIC,[5],10 µg/mL
same,MIC,[6],0.3 µg/mL
same,MIC,[7],0.3 µg/mL
same,MIC,[8],≤ 0.03 µg/mL
same,MIC,[9],30 µg/mL
same,Ki,[16],0.43 nM
same,MIC,[10],> 100 µg/mL
same,MIC,[11],30 µg/mL
same,MIC,[12],0.1 µg/mL
same,IC50,[1],118 µM
same,MIC,[13],30 µg/mL
